# Molecular target: T1, JNK1 (Homo sapiens, UniProt P45983)
# T1 construct: purchased Carna Biosciences
# Experiment: JNK1 biochemical assays (one or more of: time resolved fluorescence, Z'-LYTE Cascade, radioactive)
# Conditions: one or more of the JNK1 biochemical assays; read-out: Act. Level (JNK1 IC50 activity level)
# T1 sequence (P45983 whole entry): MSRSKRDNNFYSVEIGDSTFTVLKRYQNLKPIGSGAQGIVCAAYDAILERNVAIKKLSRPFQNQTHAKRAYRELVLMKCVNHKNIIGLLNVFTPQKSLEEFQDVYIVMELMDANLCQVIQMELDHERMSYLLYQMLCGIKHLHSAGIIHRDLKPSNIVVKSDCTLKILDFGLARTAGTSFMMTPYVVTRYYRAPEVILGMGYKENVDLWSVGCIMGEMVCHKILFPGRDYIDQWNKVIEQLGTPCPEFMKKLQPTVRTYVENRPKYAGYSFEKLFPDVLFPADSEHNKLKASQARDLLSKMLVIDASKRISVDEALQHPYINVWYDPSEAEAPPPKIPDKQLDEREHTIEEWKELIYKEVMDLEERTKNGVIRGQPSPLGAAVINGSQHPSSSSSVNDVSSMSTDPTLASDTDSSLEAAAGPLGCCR
row,Structure (SMILES),IC50 [nM]
1,"CO[C@H]1CC[C@H](Nc2ncc(C(N)=O)c(N[C@H](C)C(C)C)n2)CC1 [Example 291, 2-((1r,4R)-4-methoxycyclohexylamino)-4-((R)-3-methylbutan-2-ylamino)pyrimidine-5-carboxamide]",< 200
2,"CC(C)[C@@H](C)Nc1nc(N[C@H]2CC[C@H](O)CC2)ncc1C(N)=O [Example 292, 2-((1r,4R)-4-hydroxycyclohexylamino)-4-((R)-3-methylbutan-2-ylamino)pyrimidine-5-carboxamide]",< 200
3,"CCO[C@H]1CC[C@H](Nc2ncc(C(N)=O)c(N[C@@H](C)C3CCC3)n2)CC1 [Example 293, 4-((S)-1-cyclobutylethylamino)-2-((1r,4S)-4-ethoxycyclohexylamino)pyrimidine-5-carboxamide]",< 200
4,"CCO[C@H]1CC[C@H](Nc2ncc(C(N)=O)c(N[C@H](C)C3CCC3)n2)CC1 [Example 294, 4-((R)-1-cyclobutylethylamino)-2-((1r,4R)-4-ethoxycyclohexylamino)pyrimidine-5-carboxamide]",1000 to 10000
5,"CO[C@H]1CC[C@H](Nc2ncc(C(N)=O)c(N[C@@H](C)C3CCC3)n2)CC1 [Example 295, 4-((S)-1-cyclobutylethylamino)-2-((1r,4S)-4-methoxycyclohexylamino)pyrimidine-5-carboxamide]",< 200
6,"CO[C@H]1CC[C@H](Nc2ncc(C(N)=O)c(N[C@H](C)C3CCC3)n2)CC1 [Example 296, 4-((R)-1-cyclobutylethylamino)-2-((1r,4R)-4-methoxycyclohexylamino)pyrimidine-5-carboxamide]",1000 to 10000
7,"C[C@H](Nc1nc(N[C@H]2CC[C@H](O)CC2)ncc1C(N)=O)C1CCC1 [Example 297, 4-((S)-1-cyclobutylethylamino)-2-((1r,4S)-4-hydroxycyclohexylamino)pyrimidine-5-carboxamide]",< 200
8,"C[C@@H](Nc1nc(N[C@H]2CC[C@H](O)CC2)ncc1C(N)=O)C1CCC1 [Example 298, 4-((R)-1-cyclobutylethylamino)-2-((1r,4R)-4-hydroxycyclohexylamino)pyrimidine-5-carboxamide]",< 200
9,"CC(C)(C)Nc1nc(N[C@@H]2CCC[C@@H](O)C2)ncc1C(N)=O [Example 299, 4-(tert-butylamino)-2-((1R,3R)-3-hydroxycyclohexylamino)pyrimidine-5-carboxamide]",< 200
10,"CC(C)(C)Nc1nc(N[C@H]2CCCOC2)ncc1C(N)=O [Example 300, (S)-4-(tert-butylamino)-2-(tetrahydro-2H-pyran-3-ylamino)pyrimidine-5-carboxamide]",< 200
11,"CC(C)(C)Nc1nc(N[C@@H]2CCCOC2)ncc1C(N)=O [Example 301, (R)-4-(tert-butylamino)-2-(tetrahydro-2H-pyran-3-ylamino)pyrimidine-5-carboxamide]",< 200
12,"CC(C)(C)Nc1nc(N[C@H]2CC[C@](C)(O)CC2)ncc1C(N)=O [Example 302, 4-(tert-butylamino)-2-((1r,4r)-4-hydroxy-4-methylcyclohexylamino)pyrimidine-5-carboxamide]",< 200
13,"CC(C)(C)Nc1nc(NC2COC2)ncc1C(N)=O [Example 303, 4-(tert-butylamino)-2-(oxetan-3-ylamino)pyrimidine-5-carboxamide]",200 to 800
14,"CC(C)(C)Nc1nc(N[C@H]2CC[C@H](OC3CC3)CC2)ncc1C(N)=O [Example 304, 4-(tert-butylamino)-2-((1r,4r)-4-cyclopropoxycyclohexylamino)pyrimidine-5-carboxamide]",< 200
15,"CC(C)(C)Nc1nc(N[C@H]2CCC[C@H](O)C2)ncc1C(N)=O [Example 305, 4-(tert-butylamino)-2-((1S,3S)-3-hydroxycyclohexylamino)pyrimidine-5-carboxamide]",< 200
16,"CC(C)(C)Nc1nc(N[C@H]2CCC[C@@H](O)C2)ncc1C(N)=O [Example 306, 4-(tert-butylamino)-2-((1S,3R)-3-hydroxycyclohexylamino)pyrimidine-5-carboxamide]",< 200
17,"CC(C)(C)Nc1nc(N[C@@H]2CCC[C@H](O)C2)ncc1C(N)=O [Example 307, 4-(tert-butylamino)-2-((1R,3S)-3-hydroxycyclohexylamino)pyrimidine-5-carboxamide]",< 200
18,"CN(C)C(=O)[C@H]1CC[C@H](Nc2ncc(C(N)=O)c(NC(C)(C)C)n2)CC1 [Example 308, 4-(tert-butylamino)-2-((1r,4r)-4-(dimethylcarbamoyl)cyclohexylamino)pyrimidine-5-carboxamide]",< 200
19,"CCO[C@H]1CC[C@H](Nc2ncc(C(N)=O)c(NC(C)(C)CO)n2)CC1 [Example 309, 2-((1r,4r)-4-ethoxycyclohexylamino)-4-(1-hydroxy-2-methylpropan-2-ylamino)pyrimidine-5-carboxamide]",< 200
20,"CO[C@H]1CC[C@H](Nc2ncc(C(N)=O)c(NC(C)(C)CO)n2)CC1 [Example 310, 4-(1-hydroxy-2-methylpropan-2-ylamino)-2-((1r,4r)-4-methoxycyclohexylamino)pyrimidine-5-carboxamide]",< 200

row,Structure (SMILES),IC50 [nM]
1,"CC(C)(CO)Nc1nc(N[C@H]2CC[C@H](O)CC2)ncc1C(N)=O [Example 311, 4-(1-hydroxy-2-methylpropan-2-ylamino)-2-((1r,4r)-4-hydroxycyclohexylamino)pyrimidine-5-carboxamide]",< 200
2,"C[C@@H]1CC[C@@H](Nc2nc(NC3COC3)ncc2C(N)=O)C[C@H]1O [Example 312, 4-((1R,3R,4R)-3-hydroxy-4-methylcyclohexylamino)-2-(oxetan-3-ylamino)pyrimidine-5-carboxamide]",< 200
3,"CCO[C@H]1CC[C@H](Nc2ncc(C(N)=O)c(N[C@H]3C[C@H](C)C3)n2)CC1 [Example 313, 2-((1r,4r)-4-ethoxycyclohexylamino)-4-((1r,3r)-3-methylcyclobutylamino)pyrimidine-5-carboxamide]",< 200
4,"CCO[C@H]1CC[C@H](Nc2ncc(C(N)=O)c(NC(C)(C)C3CC3)n2)CC1 [Example 314, 4-(2-cyclopropylpropan-2-ylamino)-2-((1r,4r)-4-ethoxycyclohexylamino)pyrimidine-5-carboxamide]",< 200
5,"CO[C@H]1CC[C@H](Nc2ncc(C(N)=O)c(NC(C)(C)C3CC3)n2)CC1 [Example 315, 4-(2-cyclopropylpropan-2-ylamino)-2-((1r,4r)-4-methoxycyclohexylamino)pyrimidine-5-carboxamide]",< 200
6,"CC(C)(Nc1nc(N[C@H]2CC[C@H](O)CC2)ncc1C(N)=O)C1CC1 [Example 316, 4-(2-cyclopropylpropan-2-ylamino)-2-((1r,4r)-4-hydroxycyclohexylamino)pyrimidine-5-carboxamide]",< 200
7,"CC(C)(C)Nc1nc(NC2CCOCC2)ncc1C(N)=O [Example 317, 4-(tert-butylamino)-2-(tetrahydro-2H-pyran-4-ylamino)pyrimidine-5-carboxamide]",< 200
8,"CC(C)(C)Nc1nc(NC2CCC(F)(F)CC2)ncc1C(N)=O [Example 318, 4-(tert-butylamino)-2-(4,4-difluorocyclohexylamino)pyrimidine-5-carboxamide]",< 200
9,"CC(C)(C)Nc1nc(N[C@H]2CC[C@H](OC(F)F)CC2)ncc1C(N)=O [Example 319, 4-(tert-butylamino)-2-((1r,4r)-4-(difluoromethoxy)cyclohexylamino)pyrimidine-5-carboxamide]",< 200
10,"C[C@]1(O)CCCC(Nc2nc(NC34CCC(F)(CC3)CC4)ncc2C(N)=O)C1 (stereo partly drawn) [Example 321, 2-(4-fluorobicyclo[2.2.2]octan-1-ylamino)-4-((3S)-3-hydroxy-3-methylcyclohexylamino)pyrimidine-5-carboxamide]",< 200
11,"CC1(Nc2nc(N[C@H]3CC[C@H](O)CC3)ncc2C(N)=O)CCCC1 [Example 322, 2-((1r,4r)-4-hydroxycyclohexylamino)-4-(1-methylcyclopentylamino)pyrimidine-5-carboxamide]",< 200
12,"CC(C)(C)Nc1ncc(C(N)=O)c(N[C@H]2CCC(C)(C)[C@@H](O)C2)n1 [Example 323, 2-(tert-butylamino)-4-((1S,3S)-3-hydroxy-4,4-dimethylcyclohexylamino)pyrimidine-5-carboxamide]",200 to 800
13,"CC(C)(C)Nc1ncc(C(N)=O)c(N[C@@H]2CCC(C)(C)[C@H](O)C2)n1 [Example 324, 2-(tert-butylamino)-4-((1R,3R)-3-hydroxy-4,4-dimethylcyclohexylamino)pyrimidine-5-carboxamide]",< 200
14,"C[C@H]1C[C@H](Nc2nc(N[C@H]3CC[C@H](O)CC3)ncc2C(N)=O)C1 [Example 325, 2-((1r,4r)-4-hydroxycyclohexylamino)-4-((1r,3r)-3-methylcyclobutylamino)pyrimidine-5-carboxamide]",< 200
15,"CCO[C@H]1CC[C@H](Nc2ncc(C(N)=O)c(N[C@H]3C[C@@H](C)C3)n2)CC1 [Example 326, 2-((1r,4r)-4-ethoxycyclohexylamino)-4-((1s,3s)-3-methylcyclobutylamino)pyrimidine-5-carboxamide]",< 200
16,"C[C@H]1C[C@@H](Nc2nc(N[C@H]3CC[C@H](O)CC3)ncc2C(N)=O)C1 [Example 327, 2-((1r,4r)-4-hydroxycyclohexylamino)-4-((1s,3s)-3-methylcyclobutylamino)pyrimidine-5-carboxamide]",< 200
17,"NC(=O)c1cnc(NC2CCOCC2)nc1N[C@@H]1CCC[C@H]1CO [Example 328, 4-((1R,2R)-2-(hydroxymethyl)cyclopentylamino)-2-(tetrahydro-2H-pyran-4-ylamino)pyrimidine-5-carboxamide]",< 200
18,"NC(=O)c1cnc(N[C@H]2CC[C@H](OC(F)F)CC2)nc1N[C@@H]1CCC[C@H]1CO [Example 329, 2-((1r,4R)-4-(difluoromethoxy)cyclohexylamino)-4-((1R,2R)-2-(hydroxymethyl)cyclopentylamino)pyrimidine-5-carboxamide]",< 200
19,"CC(C)(C)Nc1ncc(C(N)=O)c(N[C@@H]2CCC[C@H]2CO)n1 [Example 330, 2-(tert-butylamino)-4-((1R,2R)-2-(hydroxymethyl)cyclopentylamino)pyrimidine-5-carboxamide]",< 200
